Experimental data reported in the supplement of paper PMC11451515.

Key:
Conditions in all cases: 48 h
[1] = test system: NOMO1; experiment: cell viability relative to DMSO control; higher = less cytotoxic
Procedure, shortened: (§1)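 Viability, reported as a per-plate percentage of DMSO wells with cell-free wells as background, came from CellTiter-Glo One luminescence. Reading took place after 48 h at 37°C. Before that, NOMO1 or SEM (500 cells/well) or P12-Ichikawa (1000 cells/well) leukemia cells, adapted for at least four passages in each medium, were seeded in 1536-well plates (5 μl) and pin-dosed with library compounds in DMSO, 47 μM to 0.79 nM over 11 threefold points.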

[2] = test system: P12-Ichikawa; experiment: as above
Procedure, shortened: as §1

[3] = test system: SEM cells; experiment: as above
Procedure, shortened: as §1

[4] = test system: NOMO1; experiment: AUC of viability dose-response curve (% viability x log10 dose units); higher = less sensitive
Procedure, shortened: (§2)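 Leukemia cells adapted to each medium were seeded in 1536-well plates (500 or 1000 cells/well). They were dosed with library compounds in DMSO at 11 threefold doses, 47 μM to 0.79 nM, for 48 h at 37°C. CellTiter-Glo One luminescence was normalised per plate to DMSO and cell-free wells. Area under the curve was integrated by trapezoidal rule over log10 doses on a four-parameter log-logistic fit; curves exceeding full viability were scaled and curves failing quality control removed.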

[5] = test system: P12-Ichikawa; experiment: as above
Procedure, shortened: as §2

[6] = test system: SEM cells; experiment: as above
Procedure, shortened: as §2

COc1ccc(-c2nc3cc(C4=NNC(=O)CC4C)ccc3[nH]2)cc1 (stereo not drawn)
cell viability [%]
Conditions	[1]	[2]	[3]
HPLM + 10% dialyzed FBS, 0.000781 µM	104	104	86.8
HPLM + 10% dialyzed FBS, 0.00234 µM	117	105	90.5
HPLM + 10% dialyzed FBS, 0.00702 µM	107	109	99.6
HPLM + 10% dialyzed FBS, 0.0211 µM	103	113	107
HPLM + 10% dialyzed FBS, 0.0632 µM	110	107	109
HPLM + 10% dialyzed FBS, 0.19 µM	119	114	106
HPLM + 10% dialyzed FBS, 0.569 µM	112	108	98.7
HPLM + 10% dialyzed FBS, 1.71 µM	123	114	101
HPLM + 10% dialyzed FBS, 5.12 µM	119	105	111
HPLM + 10% dialyzed FBS, 15.4 µM	119	106	92.5
HPLM + 10% dialyzed FBS, 46.1 µM	126	98.7	75.4
RPMI 5 mM glucose + 10% FBS, 0.000781 µM	91.5	103	92.2
RPMI 5 mM glucose + 10% FBS, 0.00234 µM	102	110	95.2
RPMI 5 mM glucose + 10% FBS, 0.00702 µM	100	110	105
RPMI 5 mM glucose + 10% FBS, 0.0211 µM	108	111	102
RPMI 5 mM glucose + 10% FBS, 0.0632 µM	117	115	112
RPMI 5 mM glucose + 10% FBS, 0.19 µM	118	105	121
RPMI 5 mM glucose + 10% FBS, 0.569 µM	109	108	111
RPMI 5 mM glucose + 10% FBS, 1.71 µM	114	105	120
RPMI 5 mM glucose + 10% FBS, 5.12 µM	102	113	101
RPMI 5 mM glucose + 10% FBS, 15.4 µM	117	111	119
RPMI 5 mM glucose + 10% FBS, 46.1 µM	118	117	90.8
RPMI 5 mM glucose + 10% dialyzed FBS, 0.000781 µM	116	88.3	93.6
RPMI 5 mM glucose + 10% dialyzed FBS, 0.00234 µM	110	98.5	91.6
RPMI 5 mM glucose + 10% dialyzed FBS, 0.00702 µM	111	104	111
RPMI 5 mM glucose + 10% dialyzed FBS, 0.0211 µM	105	103	110
RPMI 5 mM glucose + 10% dialyzed FBS, 0.0632 µM	110	108	113
RPMI 5 mM glucose + 10% dialyzed FBS, 0.19 µM	118	93.2	110
RPMI 5 mM glucose + 10% dialyzed FBS, 0.569 µM	104	102	107
RPMI 5 mM glucose + 10% dialyzed FBS, 1.71 µM	111	104	120
RPMI 5 mM glucose + 10% dialyzed FBS, 5.12 µM	116	109	110
RPMI 5 mM glucose + 10% dialyzed FBS, 15.4 µM	110	110	115
RPMI 5 mM glucose + 10% dialyzed FBS, 46.1 µM	120	84.1	84.4

AUC of viability dose-response curve
Conditions	[4]	[5]	[6]
HPLM + 10% dialyzed FBS	445	473	467
RPMI 5 mM glucose + 10% FBS	459	465	462
RPMI 5 mM glucose + 10% dialyzed FBS	461	470	465
